The assay addresses PDE1A (Homo sapiens, UniProt P54750). As to the kind of experiment: PDE1A dose response, Cyclic Nucleotide Phosphodiesterase Assay Kit from Biomol (colorimetric). The following applies: purified PDE1A enzyme, 100 μM cAMP. Type of assay: biochemical. The text has this: For the dose response and further screening, we used the Cyclic Nucleotide
Phosphodiesterase Assay Kit from Biomol, a colorimetric, non-radioactive assay. The basis for the assay is the cleavage of cAMP by PDE1A. The 5′AMP is further cleaved into the nucleoside and phosphate by the enzyme 5′-nucleotidase (catnr KI-307). The phosphate released due to enzymatic cleavage is quantified using BIOMOL GREEN™ reagent (catnr AK-111) in a modified Malachite Green assay^1,2. A PDE1A inhibitor will result in a decrease of the signal.
For the enzymatic reaction a mix of 25 μL with purified PDE1A enzyme, 100 μM cAMP, 5′Nucleotidase and the compound is made in a clear 384-plate. The reaction buffer is Tris 20 mM pH 7.4, 4 μg/mL calmodulin, 3 mM MgCl2, 1.5 mM CaCl2, 0.2 mg/mL BSA and 0.001% Brij-35. After an incubation of 45 minutes at 37° C., the reaction is stopped by the addition of 50 μL BIOMOL GREEN™ reagent. After 30 minutes incubation at room temperature, the readout is performed on the Envision (absorption at 615 nm).
All compounds are tested in duplicate starting from […] followed by a 1/3 serial dilution, 8 points (20 μM-6.67 μM-2.22 μM-740 nM-247 nM-82 nM-27 nM-9 nM) in a final concentration of 1% DMSO. As the positive dose response control compound Vardenafil is used. For the calculation of z′ and PIN values 10 μM Vardenafil is used as positive control (100% inhibition) and 1% DMSO as negative control (0% inhibition).
The following compounds have been or can be prepared according to the synthetic methods described above. For the purpose of Table 7 below, PDE1A activity of each compound, which can be determined using the assay methods described herein, is expressed as follows: […]
As for `Cc1nn(-c2ccc(F)cc2)c2nc(C3CN(C(=O)Nc4ccccc4OC(F)F)C3)[nH]c(=O)c12` [Example 29, N-(2-(difluoromethoxy)phenyl)-3-(1-(4-fluorophenyl)-3-methyl-4-oxo-4,5-dihydro-1H-pyrazolo[3,4-d]pyrimidin-6-yl)azetidine-1-carboxamide], the half-maximal inhibitory concentration (IC50) (commonly the midpoint of a concentration-inhibition curve) lay in the range of 1 to 100 nM.

For the molecule `O=C(NCc1ccc(F)cc1)N1CC(c2nc3c(cnn3C3CCCCC3)c(=O)[nH]2)C1` [Example 30, 3-(1-cyclohexyl-4-oxo-4,5-dihydro-1H-pyrazolo[3,4-d]pyrimidin-6-yl)-N-(4-fluorobenzyl)azetidine-1-carboxamide], the IC50 was in the range of 1 to 100 nM.

For the molecule `O=C(NCc1ccccc1)N1CC(c2nc3c(cnn3C3CCCCC3)c(=O)[nH]2)C1` [Example 31, N-benzyl-3-(1-cyclohexyl-4-oxo-4,5-dihydro-1H-pyrazolo[3,4-d]pyrimidin-6-yl)azetidine-1-carboxamide], the IC50 lay within 1 to 100 nM.

The molecule `O=C(NC1CCCC1)N1CC(c2nc3c(cnn3C3CCCCC3)c(=O)[nH]2)C1` [Example 32, 3-(1-cyclohexyl-4-oxo-4,5-dihydro-1H-pyrazolo[3,4-d]pyrimidin-6-yl)-N-cyclopentylazetidine-1-carboxamide] had an IC50 of 1 to 100 nM.

In turn, `N#Cc1ccc(NC(=O)N2CC(c3nc4c(cnn4C4CCCCC4)c(=O)[nH]3)C2)cc1` [Example 33, N-(4-cyanophenyl)-3-(1-cyclohexyl-4-oxo-4,5-dihydro-1H-pyrazolo[3,4-d]pyrimidin-6-yl)azetidine-1-carboxamide] returned a half-maximal inhibitory concentration (IC50) of 1 to 100 nM.

On to `CCCCNC(=O)N1CC(c2nc3c(cnn3C3CCCCC3)c(=O)[nH]2)C1` [Example 34, N-butyl-3-(1-cyclohexyl-4-oxo-4,5-dihydro-1H-pyrazolo[3,4-d]pyrimidin-6-yl)azetidine-1-carboxamide], for which the half-maximal inhibitory concentration (IC50) fell in the range of 1 to 100 nM.

In the case of `O=C(Nc1ccc(C(F)(F)F)cc1)N1CC(c2nc3c(cnn3C3CCCCC3)c(=O)[nH]2)C1` [Example 35, 3-(1-cyclohexyl-4-oxo-4,5-dihydro-1H-pyrazolo[3,4-d]pyrimidin-6-yl)-N-(4-(trifluoromethyl)phenyl)azetidine-1-carboxamide], the IC50 lay within 1 to 100 nM.

Take `O=C(NCc1ccc(Cl)c(Cl)c1)N1CC(c2nc3c(cnn3C3CCCCC3)c(=O)[nH]2)C1` [Example 37, 3-(1-cyclohexyl-4-oxo-4,5-dihydro-1H-pyrazolo[3,4-d]pyrimidin-6-yl)-N-(3,4-dichlorobenzyl)azetidine-1-carboxamide]: the IC50 is 1 to 100 nM.

`CC(C)(C)NC(=O)N1CC(c2nc3c(cnn3C3CCCCC3)c(=O)[nH]2)C1` [Example 38, N-tert-butyl-3-(1-cyclohexyl-4-oxo-4,5-dihydro-1H-pyrazolo[3,4-d]pyrimidin-6-yl)azetidine-1-carboxamide] registered an IC50 of 1 to 100 nM.

Molecule `Cc1nn(C2CCCCC2)c2nc(C3CN(C(=O)NCc4ccc(Cl)c(Cl)c4)C3)[nH]c(=O)c12` [Example 39, 3-(1-cyclohexyl-3-methyl-4-oxo-4,5-dihydro-1H-pyrazolo[3,4-d]pyrimidin-6-yl)-N-(3,4-dichlorobenzyl)azetidine-1-carboxamide] yielded an IC50 of 1 to 100 nM.

On to `CS(=O)(=O)N1CCC(NC(=O)N2CC(c3nc4c(cnn4C4CCCCC4)c(=O)[nH]3)C2)CC1` [Example 40, 3-(1-cyclohexyl-4-oxo-4,5-dihydro-1H-pyrazolo[3,4-d]pyrimidin-6-yl)-N-(1-(methylsulfonyl)piperidin-4-yl)azetidine-1-carboxamide], for which the IC50 was in the range of 1 to 100 nM.

The molecule `CC(C)(C)OC(=O)N1CCC(NC(=O)N2CC(c3nc4c(cnn4C4CCCCC4)c(=O)[nH]3)C2)CC1` [Example 41, tert-butyl 4-(3-(1-cyclohexyl-4-oxo-4,5-dihydro-1H-pyrazolo[3,4-d]pyrimidin-6-yl)azetidine-1-carboxamido)piperidine-1-carboxylate] gave an IC50 of 1 to 100 nM.
